According to DBAASP:
In brackets after ≈: the same amount, converted by molar mass. Several values for one entry are separate records, joined by “and”; a condition that tells them apart may be missing. Identical values can stand only once.

What was measured:
Assay in all cases: ≥ marks a high value that may be exact or a test limit, other limits are often not marked, values filed in µg/mL are converted to µM
[1] = system: Escherichia coli K12 MG1655
[2] = system: Bordetella bronchiseptica MTCC 6837
[3] = system: Staphylococcus aureus MTCC 3160
[4] = system: Alcaligenes faecalis MTCC 1937
[5] = system: Shigella boydii MTCC 11947
[6] = system: Proteus mirabilis MTCC 3158
[7] = system: Pseudomonas aeruginosa MTCC 3542
[8] = system: Vibrio cholerae MTCC 3904
[9] = system: Haemophilus influenzae MTCC 621
[10] = system: Klebsiella oxytoca MTCC 2275
[11] = system: Klebsiella pneumoniae MTCC 7407
[12] = system: Alkalihalobacillus alcalophilus MTCC 860
[13] = system: Proteus vulgaris MTCC 1771
[14] = system: Staphylococcus haemolyticus MTCC 3383
[15] = system: Stenotrophomonas maltophilia MTCC 1890
[16] = system: Shigella flexneri MTCC 1457
[17] = system: Pluralibacter gergoviae MTCC 3826
[18] = system: Klebsiella aerogenes MTCC 111
[19] = system: Enterococcus faecalis MTCC 439
[20] = system: Acinetobacter baumannii MTCC 9829
[21] = system: Salmonella enterica MTCC 9844
[22] = system: Corynebacterium glutamicum MTCC 2679
[23] = system: Citrobacter koseri MTCC 1657
[24] = system: Salmonella enterica subsp. enterica serovar Typhimurium ATCC 14028
[25] = system: Citrobacter freundii MTCC 1658
Candida glabrata = system: Candida glabrata
Escherichia coli ML-35 = system: Escherichia coli ML-35
[26] = system: Staphylococcus epidermidis ATCC 12228
[27] = system: Klebsiella pneumoniae ATCC 700603
[28] = system: Staphylococcus aureus ATCC 6538
[29] = system: Escherichia coli ATCC 25922
[30] = system: Staphylococcus aureus ATCC 25923
[31] = system: Pseudomonas aeruginosa ATCC 15422
[32] = system: Cronobacter sakazakii ATCC 29544
[33] = system: Candida glabrata ATCC 2001
[34] = system: Bacillus subtilis ATCC 23857
[35] = system: Escherichia coli ATCC 43827
[36] = system: Staphylococcus aureus ATCC 29213
[37] = system: Candida tropicalis ATCC 750
[38] = system: Candida albicans ATCC 14053
[39] = system: Bacillus subtilis CCT 2576
Candida albicans = system: Candida albicans
Candida krusei ATCC 6258 = system: Candida krusei ATCC 6258
[40] = system: Escherichia coli ATCC 8739
[41] = system: Pseudomonas aeruginosa H1001

Row | SMILES | MIC [1] | MIC [2] | MIC [3] | MIC [4] | MIC [5] | MIC [6] | MIC [7] | MIC [8] | MIC [9] | MIC [10] | MIC [11] | MIC [12] | MIC [13] | MIC [14] | MIC [15] | MIC [16] | MIC [17] | MIC [18] | MIC [19] | MIC [20] | other results
1 | CC[C@H](C)[C@H](NC(=O)[C@H](Cc1cnc[nH]1)NC(=O)[C@H](Cc1cnc[nH]1)NC(=O)[C@@H](NC(=O)[C@@H](NC(=O)[C@H](CCCCN)NC(=O)[C@@H](NC(=O)[C@@H](NC(=O)[C@H](CCCCN)NC(=O)[C@H](Cc1cnc[nH]1)NC(=O)[C@H](Cc1ccccc1)NC(=O)[C@H](C)NC(=O)[C@H](CO)NC(=O)[C@H](CC(C)C)NC(=O)[C@@H](N)C(C)C)C(C)C)[C@@H](C)CC)[C@@H](C)CC)[C@@H](C)CC)C(=O)N[C@@H](CO)C(=O)N[C@@H](Cc1cnc[nH]1)C(=O)N[C@@H](Cc1ccccc1)C(=O)O [VLSAFHKVIKIIHHISHF] | 15 µM (≈ 32 µg/mL) | 1.88 µM (≈ 4 µg/mL) | ≥ 60.2 µM | ≥ 60.2 µM | 7.52 µM (≈ 16 µg/mL) | ≥ 60.2 µM | ≥ 60.2 µM | ≥ 60.2 µM | 3.76 µM (≈ 8 µg/mL) | ≥ 60.2 µM | ≥ 60.2 µM | 15 µM (≈ 32 µg/mL) | ≥ 60.2 µM | 15 µM (≈ 32 µg/mL) | ≥ 60.2 µM | 3.76 µM (≈ 8 µg/mL) | ≥ 60.2 µM | ≥ 60.2 µM | ≥ 60.2 µM | 7.52 µM (≈ 16 µg/mL) | MIC [21]: 15 µM (≈ 32 µg/mL); MIC [22]: 1.88 µM (≈ 4 µg/mL); MIC [23]: 7.52 µM (≈ 16 µg/mL); MIC [24]: > 60.2 µM; MIC [25]: ≥ 60.2 µM
2 | CC[C@H](C)[C@H](N)C(=O)N[C@@H](CC(C)C)C(=O)NCC(=O)N[C@H](C(=O)N[C@H](C(=O)N[C@@H](CC(C)C)C(=O)NCC(=O)N[C@@H](CC(C)C)C(=O)N[C@@H](CC(C)C)C(=O)N[C@@H](CCCCN)C(=O)N[C@@H](CO)C(=O)N[C@@H](CC(C)C)C(N)=O)[C@@H](C)CC)[C@@H](C)O [ILGTILGLLKSL] |  |  |  |  |  |  |  |  |  |  |  |  |  |  |  |  |  |  |  |  | MIC (Candida glabrata): 16 µM (≈ 19.8 µg/mL); MIC (Escherichia coli ML-35): ≥ 64 µM; MIC [26]: 8 µM and > 4 µM; MIC [27]: 128 µM (≈ 159 µg/mL); MIC [28]: 12.1 µM (≈ 15 µg/mL); MIC [29]: 32 µM (≈ 39.7 µg/mL); MIC [30]: 8 µM (≈ 9.92 µg/mL); MIC [31]: ≥ 202 µM; MIC [32]: ≥ 64 µM; MIC [33]: 16 µM (≈ 19.8 µg/mL); MIC [34]: 4 µM (≈ 4.96 µg/mL); MIC [35]: ≥ 32 µM; MIC [36]: 4 µM (≈ 4.96 µg/mL); MIC [37]: 4 µM (≈ 4.96 µg/mL); MIC [38]: 16 µM (≈ 19.8 µg/mL); MIC [39]: 12.1 µM (≈ 15 µg/mL); MIC (Candida albicans): 22.6 µM (≈ 28 µg/mL); MIC (Candida krusei ATCC 6258): ≥ 32 µM
3 | CC[C@H](C)[C@H](NC(=O)[C@H](CCCCN)NC(=O)[C@H](Cc1ccccc1)NC(=O)[C@H](C)NC(=O)[C@H](C)NC(=O)[C@H](CCCCN)NC(=O)[C@@H](NC(=O)[C@H](CC(C)C)NC(=O)CNC(=O)[C@H](CCCCN)NC(=O)[C@H](Cc1c[nH]c2ccccc12)NC(=O)[C@@H](N)Cc1ccccc1)C(C)C)C(=O)N[C@H](C(=O)N[C@@H](Cc1cnc[nH]1)C(=O)N[C@@H](C)C(=O)NCC(=O)N[C@@H](CO)C(=O)O)C(C)C [FWKGLVKAAFKIVHAGS] | ≥ 34.4 µM | 4.3 µM (≈ 8 µg/mL) | ≥ 68.8 µM | ≥ 68.8 µM | ≥ 68.8 µM | ≥ 68.8 µM | ≥ 68.8 µM | ≥ 68.8 µM | ≥ 68.8 µM | ≥ 34.4 µM | ≥ 68.8 µM | 8.61 µM (≈ 16 µg/mL) | ≥ 68.8 µM | 8.61 µM (≈ 16 µg/mL) | ≥ 68.8 µM | ≥ 68.8 µM | ≥ 68.8 µM | ≥ 68.8 µM | ≥ 68.8 µM | 8.61 µM (≈ 16 µg/mL) | MIC [21]: ≥ 68.8 µM; MIC [22]: 1.08 µM (≈ 2 µg/mL); MIC [23]: ≥ 34.4 µM; MIC [24]: > 68.8 µM; MIC [25]: ≥ 68.8 µM
4 | CC[C@H](C)[C@H](NC(=O)[C@H](C)NC(=O)[C@H](CC(N)=O)NC(=O)[C@H](CCSC)NC(=O)[C@@H]1CCCN1)C(=O)N[C@@H](CCCCN)C(=O)N[C@@H](CC(C)C)C(=O)N[C@@H](CC(C)C)C(=O)N[C@@H](CS)C(=O)N[C@@H](CCCN=C(N)N)C(=O)N[C@H](C(=O)N[C@@H](Cc1cnc[nH]1)C(=O)N[C@@H](CCCCN)C(=O)N[C@@H](CCCCN)C(=O)N[C@H](C(=O)N[C@@H](C)C(=O)N[C@H](C(=O)N[C@@H](CO)C(=O)N[C@H](C(=O)O)C(C)C)[C@@H](C)CC)[C@@H](C)CC)C(C)C [PMNAIKLLCRVHKKIAISV] |  |  |  |  |  |  |  |  |  |  |  |  |  |  |  |  |  |  |  |  | MIC [40]: ≥ 60 µM; MIC [41]: 5.86 µM (≈ 12.5 µg/mL)
5 | CC(C)C[C@H](NC(=O)[C@H](Cc1ccc(O)cc1)NC(=O)[C@@H]1CCCN1C(=O)[C@@H]1CCCN1C(=O)[C@H](CCCCN)NC(=O)[C@H](CC(=O)O)NC(=O)[C@@H](N)C(C)C)C(=O)N1CCC[C@H]1C(=O)N[C@@H](CCCN=C(N)N)C(=O)N1CCC[C@H]1C(=O)N[C@@H](CCCN=C(N)N)C(=O)N1CCC[C@H]1C(=O)N1CCC[C@H]1C(=O)N[C@@H](CCCN=C(N)N)C(=O)N[C@@H](CCCN=C(N)N)C(=O)N[C@@H](Cc1ccccc1)C(=O)N[C@@H](Cc1ccc(O)cc1)C(=O)N[C@@H](CC(N)=O)C(=O)N[C@@H](CCCN=C(N)N)C(=O)NCC(=O)O [VDKPPYLPRPRPPRRFYNRG] |  |  |  |  |  |  |  |  |  |  |  |  |  |  |  |  |  |  |  |  | MIC [41]: 0.105 µM (≈ 0.26 µg/mL)
